Tests used:
[1] = target: T1, human 11-β-hydroxysteroid dehydrogenase type-1 enzyme (11-β-HSD1) (Homo sapiens, UniProt P28845); assay: Scintillation proximity assay: human 11-β-HSD1 enzyme assay; format: biochemical; conditions: Ki calculated from IC50 (Cheng Prushoff)
T1 construct: made in house; host or cells: Pichia pastoris
Description: [1, 2(n)-^3H]-cortisone was purchased from Amersham Pharmacia Biotech. Anti-cortisol monoclonal mouse antibody, clone 6D6.7 was obtained from Immunotech and Scintillation proximity assay (SPA) beads coated with monoclonal antimouse antibodies were from Amersham Pharmacia Biotech. NADPH, tetrasodium salt was from Calbiochem and glucose-6-phosphate (G-6-P) was supplied by Sigma. The human 11-β-hydroxysteroid dehydrogenase type-1 enzyme (11-β-HSD1) was expressed in Pichia pastoris. 18-β-glycyrrhetinic acid (GA) was obtained from Sigma. The serial dilutions of the compounds were performed on a Tecan Genesis RSP 150.
Compounds to be tested were dissolved in DMSO (1 mM) and diluted in 50 mM Tris-HCl, pH 7.2 containing 1 mM EDTA.
The multiplication of plates was done on a WallacQuadra. The amount of the product [^3H]-cortisol, bound to the beads was determined in a Packard, Top Count microplate liquid scintillation counter.
The 11-β-HSD1 enzyme assay was carried out in 96 well microtiter plates (Packard, Optiplate) in a total well volume of 220 μL and contained 30 mM Tris-HCl, pH 7.2 with 1 mM EDTA, a substrate mixture tritiated Cortisone/NADPH (175 nM/181 μM), G-6-P (1 mM) and inhibitors in serial dilutions (9 to 0.15 μM). Reactions were initiated by the addition of human 11-β-HSD1, either as Pichia pastoris cell homogenate or microsomes prepared from Pichia pastoris (the final amount of enzyme used was varied between 0.057 to 0.11 mg/mL). Following mixing, the plates were shaken for 30 to 45 minutes at room temperature. The reactions were terminated with 10 μL 1 mM GA stop solution. Monoclonal mouse antibody was then added (10 μL of 4 μM) followed by 100 μL of SPA beads (suspended according to the manufacturers instructions). Appropriate controls were set up by omitting the 11-β-HSD1 to obtain the non-specific binding (NSB) value.
The plates were covered with plastic film and incubated on a shaker for 30 minutes, at room temperature, before counting. The amount of [^3H]-cortisol, bound to the beads was determined in a microplate liquid scintillation counter.
The calculation of the Ki values for the inhibitors was performed by use of Activity Base. The Ki value is calculated from IC50 and the Km value is calculated using the Cheng Prushoff equation (with reversible inhibition that follows the Michaelis-Menten equation): […] [Cheng, Y. C.; Prushoff, W. H. Biochem. Pharmacol. 1973, 22, 3099-3108]. The IC50 is measured experimentally in an assay wherein the decrease of the turnover of cortisone to cortisol is dependent on the inhibition potential of each substance. The Ki values of the compounds of the present invention for the 11-β-HSD1 enzyme lie typically between about 10 nM and about 10 μM. Illustrative of the invention, the following Ki values have been determined in the human 11-β-HSD1 enzyme assay (see Table 1): […]

T1 sequence (P28845 whole entry): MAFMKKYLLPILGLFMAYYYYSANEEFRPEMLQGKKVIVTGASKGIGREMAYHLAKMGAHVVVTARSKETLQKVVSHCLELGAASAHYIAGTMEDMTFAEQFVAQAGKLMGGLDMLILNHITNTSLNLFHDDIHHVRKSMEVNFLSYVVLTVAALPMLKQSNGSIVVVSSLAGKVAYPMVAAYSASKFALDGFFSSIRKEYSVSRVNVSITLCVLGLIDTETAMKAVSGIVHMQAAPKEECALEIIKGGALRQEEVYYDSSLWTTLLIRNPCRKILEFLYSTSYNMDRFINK

| SMILES | Ki [1] | melting point |
| --- | --- | --- |
| CCOC(=O)Cc1csc(NS(=O)(=O)c2cc(C)c(Cl)cc2Cl)n1 [Example 1A, Ethyl (2-{[(2,4-dichloro-5-methylphenyl)sulfonyl]amino}-1,3-thiazol-4-yl)acetate] | 32 nM |  |
| CNC(=O)Cc1csc(NS(=O)(=O)c2cccc(Cl)c2C)n1 [Example 106A, 2-(2-{[(3-Chloro-2-methylphenyl)sulfonyl]amino}-1,3-thiazol-4-yl)-N-methylacetamide] |  | 165 °C |
| CCNC(=O)Cc1csc(NS(=O)(=O)c2cccc(Cl)c2C)n1 [Example 107A, 2-(2-{[(3-Chloro-2-methylphenyl)sulfonyl]amino}-1,3-thiazol-4-yl)-N-ethylacetamide] |  | 96 °C |
| Cc1c(Cl)cccc1S(=O)(=O)Nc1nc(CC(=O)Nc2ccccc2)cs1 [Example 108A, 2-(2-{[(3-Chloro-2-methylphenyl)sulfonyl]amino}-1,3-thiazol-4-yl)-N-phenylacetamide] |  | 202 °C |
| Cc1c(Cl)cccc1S(=O)(=O)Nc1nc(CC(=O)NC(c2ccccc2)c2ccccc2)cs1 [Example 113A, N-Benzhydryl-2-(2-{[(3-chloro-2-methylphenyl)sulfonyl]amino}-1,3-thiazol-4-yl)acetamide] |  | 200 °C |
| Cc1c(Cl)cccc1S(=O)(=O)Nc1nc(CC(=O)N(C)C)cs1 [Example 131A, 2-(2-{[(3-Chloro-2-methylphenyl)sulfonyl]amino}-1,3-thiazol-4-yl)-N,N-dimethylacetamide] |  | 84 °C |
| Cc1c(Cl)cccc1S(=O)(=O)Nc1nc(CC(=O)N2CCCC2)cs1 [Example 142A, 3-Chloro-2-methyl-N-{4-[2-oxo-2-(1-pyrrolidinyl)ethyl]-1,3-thiazol-2-yl}benzenesulfonamide] |  | 107 °C |
| Cc1c(Cl)cccc1S(=O)(=O)Nc1nc(CC(=O)N2CCOCC2)cs1 [Example 148A, 3-Chloro-2-methyl-N-{4-[2-(4-morpholinyl)-2-oxoethyl]-1,3-thiazol-2-yl}benzenesulfonamide] |  | 208 to 209 °C |
| O=C(Cc1csc(NS(=O)(=O)c2c(Cl)cc(Cl)cc2Cl)n1)N1CCOCC1 [Example 149A, 2,4,6-Trichloro-N-{4-[2-(4-morpholinyl)-2-oxoethyl]-1,3-thiazol-2-yl}benzenesulfonamide] | 51 nM |  |
| O=C(Cc1csc(NS(=O)(=O)c2ccc(-c3ccccc3)cc2)n1)N1CCOCC1 [Example 151A, N-{4-[2-(4-morpholinyl)-2-oxoethyl]-1,3-thiazol-2-yl}[1,1′-biphenyl]-4-sulfonamide] | 21 nM |  |

Now from value to compound:

| Ki [1] | melting point | SMILES |
| --- | --- | --- |
|  | 186 to 187 °C | Cc1cc(Cl)cc(Cl)c1S(=O)(=O)Nc1nc(CC(=O)N2CCOCC2)c(C)s1 [Example 159A, 2,4-Dichloro-6-methyl-N-{5-methyl-4-[2-(4-morpholinyl)2-oxoethyl]-1,3-thiazol-2-yl}benzenesulfonamide] |
|  | 204 to 206 °C | Cc1sc(NS(=O)(=O)c2ccc(-c3ccccc3)cc2)nc1CC(=O)N1CCOCC1 [Example 160A, N-{5-methyl-4-[2-(4-morpholinyl)-2-oxoethyl]-1,3-thiazol-2-yl}[1,1′-biphenyl]-4-sulfonamide] |
|  | 216 to 217 °C | Cc1sc(NS(=O)(=O)c2c(Cl)cc(Cl)cc2Cl)nc1CC(=O)N1CCOCC1 [Example 161A, 2,4,6-trichloro-N-{5-methyl-4-[2-(4-morpholinyl)-2-oxoethyl]-1,3-thiazol-2-yl}benzenesulfonamide] |
|  | 194 to 195 °C | Cc1sc(NS(=O)(=O)c2cccc(Cl)c2C)nc1CC(=O)N1CCOCC1 [Example 162A, 3-chloro-2-methyl-N-{5-methyl-4-[2-(4-morpholinyl)-2-oxoethyl]-1,3-thiazol-2-yl}benzenesulfonamide] |
|  | 103 to 106 °C | Cc1c(Cl)cccc1S(=O)(=O)Nc1nc(CC(=O)N2CCSCC2)cs1 [Example 165A, 3-Chloro-2-methyl-N-{4-[2-oxo-2-(4-thiomorpholinyl)ethyl]-1,3-thiazol-2-yl}benzenesulfonamide] |
| 14 nM |  | CCCC(=O)Cc1csc(NS(=O)(=O)c2cccc(Cl)c2C)n1 [Example 179A, 3-Chloro-2-methyl-N-[4-(2-oxopentyl)-1,3-thiazol-2-yl]benzenesulfonamide] |
| 53 nM |  | Cc1c(Cl)cccc1S(=O)(=O)Nc1nc(CCO)cs1 [Example 181A, 3-Chloro-N-[4-(2-hydroxyethyl)-1,3-thiazol-2-yl]-2-methylbenzenesulfonamide] |
| 299 nM |  | Cc1c(Cl)cccc1S(=O)(=O)Nc1nc(CCOc2cccnc2)cs1 [Example 189A, 3-Chloro-2-methyl-N-{4-[2-(3-pyridinyloxy)ethyl]-1,3-thiazol-2-yl}benzenesulfonamide] |
|  | 152 to 153 °C | CCOCCc1nc(NS(=O)(=O)c2cccc(Cl)c2C)sc1CN(C)C [Example 190A, 3-Chloro-N-[5-[(dimethylamino)methyl]-4(2-ethoxyethyl)-1,3-thiazol-2-yl]-2-methylbenzenesulfonamide] |
|  | 122 °C | CCC(=O)OCCc1csc(NS(=O)(=O)c2cccc(Cl)c2C)n1 [Example 192B, 2-(2-{[(3-Chloro-2-methylphenyl)sulfonyl]amino}-1,3-thiazol-4-yl)ethyl propionate] |
|  | 118 °C | Cc1c(Cl)cccc1S(=O)(=O)Nc1nc(CCOC(=O)C(C)C)cs1 [Example 193A, 2-(2-{[(3-Chloro-2-methylphenyl)sulfonyl]amino}-1,3-thiazol-4-yl)ethyl 2-methylpropanoate] |
|  | 161 °C | Cc1c(Cl)cccc1S(=O)(=O)Nc1nc(CCOC(=O)N2CCOCC2)cs1 [Example 196A, 2-(2-{[(3-Chloro-2-methylphenyl)sulfonyl]amino}-1,3-thiazol-4-yl)ethyl 4-morpholinecarboxylate] |
| 91 nM | 197 to 198 °C | Cc1c(Cl)cccc1S(=O)(=O)Nc1nc(CCN2CCOCC2)cs1.Cl [Example 204A, 3-Chloro-2-methyl-N-{4-[2-(4-morpholinyl)ethyl]-1,3thiazol-2-yl}benzenesulfonamide hydrochloride] |

Reference: patent publication US7618961B2, “Inhibitors of 11-beta-hydroxy steroid dehydrogenase type 1” (Biovitrum AB, priority 2000, dated 2009)
